Here are results for three compounds from patent publication US12268661B2, “Methods of treating ascites” (Martin Pharmaceuticals, Inc., priority 2019, dated 2025).

The test system of one data set is patients with RA. The settings on record: cited from earlier work.
For data set [1] the following is noted: oral administration, high rates of metabolism in gut/small intestine and liver, cited from earlier work.
Data set [2] relates to dopamine receptors, beta1 adrenoceptors, alpha-adrenoceptors. The settings on record: cited from earlier work.
The subject of data set [3] is cirrhotic patients with refractory ascites. The experiment in a line: Open-label, single-arm clinical study of docarpamine in cirrhotic subjects with refractory ascites. The format is in vivo, human. As to the method:
An open-label, single-arm study in which each subject serves as his/her own control is conducted. The study assesses the effect of DCP treatment on ascites formation in cirrhotic subjects with RA, by examining the frequency of LVP and the volume of ascitic fluid drained. All subjects participate in a 90-day open-label treatment period. […] Ascites history (relevant medications, LVP dates, and volume of drained fluid) for the 90 days prior to treatment and the 90 days after treatment are collected and used for comparison with on-treatment frequency and volume. The study population consists of cirrhotic patients between 18 and 70 years of age, inclusive, with refractory ascites, subject to the following inclusion and exclusion criteria. • Patients 18 years to 70 years of age. • Documented cirrhosis of the liver. • Refractory ascites, defined as ascites not manageable with diuretics and diet restriction, managed with periodic large volume therapeutic paracentesis. • Patients must have therapeutic […] 3 days prior to enrollment and a documented minimum of 3 additional therapeutic […] 90 days prior to enrollment, with at least 1 every 30 days. • Outpatient, with expected survival of at least 6 months. • Willing and able to complete an informed consent form. […] Results

Data set [4] is described as follows: Dopamine levels after oral administration of docarpamine in non-Asian versus Asian populations. The format is in vivo, human. The settings on record: non-Asian (especially Caucasian) compared to Asian (especially Japanese) populations.
The next data set concerns RA patients. The settings on record: small cohort of RA patients (Funasaki 1999); cited from earlier work.
Where [5] appears, read: dopamine 2 ug/kg/min, patients with RA (Lin 1998).

Like-named read-outs stand apart in the source and are kept apart here.

On to `NCCc1ccc(O)c(O)c1` [dopamine], for which the GFR entry in the data set with patients with RA (dopamine 1.5 ug/kg/min (Bacq 1991)) is on record as “did not enhance”; with patients with RA (dopamine 200 ug/min), “did not significantly change”. Also, the “urine volume and GFR” value with patients with RA (dopamine 2 ug/kg/min (Espiritu 1972)) is “non-significant increases”. Also, the “changes of blood urea nitrogen, creatinine, creatinine clearance, blood pressure, pulse rate, serum sodium, serum aldosterone and GFR” value in the data set with patients with RA (setting [5]) is recorded as “no difference”. In addition, in the data set with patients with RA (setting [5]), the “effective renal plasma flow” value was “Positive effects”. Besides, the “urine volume, urine sodium or GFR” value in the data set with patients with RA (dopamine 1.3-3 ug/kg/min (Barnardo 1970)) is “did not change”. The oral bioavailability entry is listed as “not orally bioavailable” in data set [1] and “not bioavailable when administered orally” in data set [1] (listed as Dopamine). Further, the “effect at low rates of infusion” value in data set [2] (0.5-2 mcg/kg/min, renal, mesenteric, coronary, intracerebral vascular beds) is listed as “vasodilation”. Moreover, the “effect at intermediate rates of infusion” value in data set [2] (2-10 mcg/kg/min, beta1 adrenoceptor stimulation) is “improved myocardial contractility, increased sino-atrial rate and enhanced impulse conduction in the heart”. Further, in data set [2] (10-20 mcg/kg/min, alpha-adrenoceptors), the “effect at higher rates of infusion” value was “vasoconstrictor effects and a rise in blood pressure”. In addition, the “effect at very high rates of infusion” value in data set [2] (above 20 mcg/kg/min, alpha-adrenoceptor stimulation predominates) was “reversing renal dilation and natriuresis”. Further, the “effect when administered intravenously” value in data set [2] (intravenous) is “natriuretic and positive inotropic effects”.
For the compound `CCOC(=O)Oc1ccc(CCNC(=O)[C@H](CCSC)NC(C)=O)cc1OC(=O)OCC` [docarpamine], the “dose groups in which effects are observed” value in data set [3] (750 mg 3 times per day (2250 mg) versus 1500 mg 3 times per day (4500 mg), 90 days) is given as “only in the high dose (4500 mg per day group)”. For the same compound, in data set [3] (1500 mg 3 times per day (4500 mg per day), 90 days treatment), the “time without requiring LVP” value is “Some patients do not require LVP for more than one month and others do not require LVP for more than two months”. Moreover, in data set [3] (4500 mg per day group, 90 days), the “renin and/or aldosterone levels” value was “reduced, in some cases to normal, in many patients”; the “sodium excretion and other markers of renal function” value is “Increased sodium excretion and other markers of improved renal function respond positively”. Moreover, the “frequency of LVP and/or volume of ascites removed over 90 days” value in data set [3] (4500 mg per day group, 90 days, versus own history) was “reduced by more than half on average”. Further, in data set [3] (4500 mg per day group, most patients, from 500-1000 ml before, 'or more'), the urinary output lay in the range of 1500 to 2000 mL. Also, the “response (need for LVP)” value in data set [3] (some patients, 2250 mg per day in combination with diuretics (furosemide and/or spironolactone)) is “enhanced response (decreased need for LVP)”. The “variability in the resulting dopamine levels” value in data set [4] was “high degree of variability”. Besides, the “efficacy in refractory ascites” value with RA patients was “effective”.
On to `Oc1ccc(C2CNCCc3c2cc(O)c(O)c3Cl)cc1` (centres unmarked) [fenoldopam], for which the “urine volume or urine sodium” value in the data set with patients with RA (Hadengue 1991) was “failed to increase”.
